Measurements as given in patent US10881106B2, “Herbicidal pyridazinone compounds” (SYNGENTA PARTICIPATIONS AG, priority 2016, dated 2021).

Experiments:
Assay type in all cases: in vivo
[1] = test system: Abutilon theophrasti (ABUTH); experiment: Post-emergence glasshouse herbicide test, percentage damage to plant; settings: POST Application, 125 g/ha, evaluated after 14 days
Procedure: (§1) Seeds of a variety of test species were sown in standard soil in pots (Amaranthus retoflexus (AMARE), Abutilon theophrasti (ABUTH), Digitaria sanguinalis (DIGSA), Setaria faberi (SETFA) and Zea mays (ZEAMX). After cultivation for 10 days under controlled conditions in a glasshouse (at 24/16° C., day/night; 14 hours light; 65% humidity), the plants were sprayed with an aqueous spray solution derived from the formulation of the technical active ingredient in 0.6 ml acetone and 45 ml formulation solution containing 10.6% Emulsogen EL (Registry number 61791-12-6), 42.2% N-methyl pyrrolidone, 42.2% dipropylene glycol monomethyl ether (CAS RN 34590-94-8) and 0.2% X-77 (CAS RN 11097-66-8). The test plants were then grown in a glasshouse under controlled conditions in a glasshouse (at 24/16° C., day/night; 14 hours light; 65% humidity) and watered twice daily. After 14 days the test is evaluated for the percentage damage caused to the plant. The biological activities are shown in the following table on a five point scale (5=80-100%; 4=60-79%; 3=40-59%; 2=20-39%; 1=0-19%).

[2] = test system: Amaranthus retoflexus (AMARE); experiment: as above; settings: POST Application, 125 g/ha, evaluated after 14 days
Procedure: as §1

[3] = test system: Digitaria sanguinalis (DIGSA); experiment: as above; settings: POST Application, 125 g/ha, evaluated after 14 days
Procedure: as §1

Setaria faberi (SETFA) = experiment: as above; settings: POST Application, 125 g/ha, evaluated after 14 days
Procedure: as §1

Zea mays (ZEAMX) = experiment: Post-emergence glasshouse herbicide test, percentage damage to crop plant; settings: POST Application, 125 g/ha, evaluated after 14 days; crop (corn)
Procedure: as §1

Row | Compound | ABUTH percentage damage caused to the plant (five point scale) [1] | AMARE percentage damage caused to the plant (five point scale) [2] | DIGSA percentage damage caused to the plant (five point scale) [3] | SETFA percentage damage caused to the plant (five point scale) (Setaria faberi (SETFA)) | ZEAMX percentage damage caused to the plant (five point scale) (Zea mays (ZEAMX))
1 | Cc1cc(C(=O)C2=C(O)CCCC2=O)c(=O)n(CCC(=O)N2CCOCC2)n1 [Compound 1.004] | 5 (5=80-100%) | 5 (5=80-100%) | 5 (5=80-100%) | 5 (5=80-100%) | 1 (1=0-19%)
2 | CNC(=O)OCCn1nc(C)cc(C(=O)C2=C(O)CCCC2=O)c1=O [Compound 1.008] | 5 (5=80-100%) | 5 (5=80-100%) | 5 (5=80-100%) | 5 (5=80-100%) | 1 (1=0-19%)
